Target: PI3K delta (Homo sapiens (Human), UniProt O00329)
Test: Luciferase-coupled chemiluminescence kinase assay (KinaseGlo, ATP consumption)
Format: biochemical
In short: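 Kinase, compound and ATP (at or below KM) reacted 2 h at ambient temperature; remaining ATP detected by KinaseGlo luciferase chemiluminescence as percent ATP consumed. 10-point dose-response, curves fitted to give IC50.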

Chain of PI3K delta (O00329 whole entry): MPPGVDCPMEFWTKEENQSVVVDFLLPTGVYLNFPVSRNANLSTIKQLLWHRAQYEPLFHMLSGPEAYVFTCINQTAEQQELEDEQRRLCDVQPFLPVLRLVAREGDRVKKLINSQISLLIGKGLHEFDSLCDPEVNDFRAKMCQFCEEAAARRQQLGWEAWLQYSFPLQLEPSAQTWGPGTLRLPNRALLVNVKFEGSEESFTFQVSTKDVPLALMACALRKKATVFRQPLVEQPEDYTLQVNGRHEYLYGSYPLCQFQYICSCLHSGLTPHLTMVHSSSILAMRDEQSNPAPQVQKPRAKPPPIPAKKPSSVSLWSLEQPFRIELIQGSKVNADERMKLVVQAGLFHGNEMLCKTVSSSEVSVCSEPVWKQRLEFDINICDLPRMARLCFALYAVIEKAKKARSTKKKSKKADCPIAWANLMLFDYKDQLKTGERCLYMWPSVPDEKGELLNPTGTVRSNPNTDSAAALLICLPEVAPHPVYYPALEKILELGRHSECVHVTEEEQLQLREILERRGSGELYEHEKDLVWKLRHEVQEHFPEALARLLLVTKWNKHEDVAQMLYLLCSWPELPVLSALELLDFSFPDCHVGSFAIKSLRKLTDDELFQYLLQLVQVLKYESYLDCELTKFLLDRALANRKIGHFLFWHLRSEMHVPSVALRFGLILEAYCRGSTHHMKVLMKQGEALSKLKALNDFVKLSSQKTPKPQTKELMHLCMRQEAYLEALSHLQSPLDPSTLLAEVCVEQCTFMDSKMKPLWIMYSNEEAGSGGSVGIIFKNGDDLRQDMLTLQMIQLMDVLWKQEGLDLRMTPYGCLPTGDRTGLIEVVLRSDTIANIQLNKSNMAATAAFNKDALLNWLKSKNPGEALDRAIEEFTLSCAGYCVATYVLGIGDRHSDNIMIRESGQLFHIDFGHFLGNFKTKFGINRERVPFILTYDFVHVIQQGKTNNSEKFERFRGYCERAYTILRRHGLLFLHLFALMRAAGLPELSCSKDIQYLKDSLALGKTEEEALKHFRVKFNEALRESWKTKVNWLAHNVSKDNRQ
Chain of PI3K delta (P27986 whole entry partner): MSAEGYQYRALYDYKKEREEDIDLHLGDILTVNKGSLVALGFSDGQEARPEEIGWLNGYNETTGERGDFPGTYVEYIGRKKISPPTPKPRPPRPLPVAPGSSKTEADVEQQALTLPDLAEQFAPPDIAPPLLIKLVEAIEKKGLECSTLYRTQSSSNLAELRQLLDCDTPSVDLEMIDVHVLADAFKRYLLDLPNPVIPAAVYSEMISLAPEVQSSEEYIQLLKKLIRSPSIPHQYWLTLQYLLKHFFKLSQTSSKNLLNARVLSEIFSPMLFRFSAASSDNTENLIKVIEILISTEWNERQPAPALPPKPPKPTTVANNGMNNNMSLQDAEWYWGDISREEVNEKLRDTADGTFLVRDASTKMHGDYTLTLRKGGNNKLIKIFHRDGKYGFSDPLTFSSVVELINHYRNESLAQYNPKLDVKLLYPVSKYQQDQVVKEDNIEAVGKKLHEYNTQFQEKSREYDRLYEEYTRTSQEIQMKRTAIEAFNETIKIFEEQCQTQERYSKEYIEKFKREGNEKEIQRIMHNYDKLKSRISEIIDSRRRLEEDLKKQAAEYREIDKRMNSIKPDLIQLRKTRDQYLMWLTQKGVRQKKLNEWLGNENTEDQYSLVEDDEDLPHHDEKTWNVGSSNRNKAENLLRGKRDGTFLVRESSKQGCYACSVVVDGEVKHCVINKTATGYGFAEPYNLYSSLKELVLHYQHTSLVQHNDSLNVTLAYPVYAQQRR

Row | Compound | IC50 [nM]
1 | Cc1ccccc1-c1cc2ccccc2cc1Cn1cnc2c(N)ncnc21 [Compound 120, 9-{[3-(2-methylphenyl)naphthalen-2-yl]methyl}-9H-purin-6-amine] | 500 to 1500
2 | CNCCOc1nc2c(C)cccc2cc1CNC(=O)c1nccnc1N [Compound 122, 3-amino-N-[(8-methyl-2-{[2-(methylamino)ethyl]oxy}quinolin-3-yl)methyl]pyrazine-2-carboxamide] | 500 to 1500
3 | Cc1cccc2cc(CNC(=O)c3nccnc3N)c(NCCO)nc12 [Compound 125, 3-amino-N-({2-[(2-hydroxyethyl)amino]-8-methylquinoin-3-yl}methyl)pyrazine-2-carboxamide] | 500 to 1500
4 | Cc1cccc2cc(CNC(=O)c3nccnc3N)c(N3CCC(N(C)C)CC3)nc12 [Compound 127, 3-amino-N-({2-[4-(dimethylamino)piperidin-1-yl]-8-methylquinolin-3-yl}methyl)pyrazine-2-carboxamide] | 500 to 1500
5 | Cc1cccc2cc(CNC(=O)c3nccnc3N)c(NCCN(C)C)nc12 [Compound 129, 3-amino-N-[(2-{[2-(dimethylamino)ethyl]amino}-8-methylquinolin-3-yl)methyl]pyrazine-2-carboxamide] | 500 to 1500
6 | Cc1cccc2cc(CNC(=O)c3nccnc3N)c(N3CCNCC3)nc12 [Compound 131, 3-amino-N-[(8-methyl-2-piperazin-1-ylquinolin-3-yl)methyl]pyrazine-2-carboxamide] | 500 to 1500
7 | Cc1ccccc1-c1cc2ccccc2nc1CNc1cncnc1N [Compound 132, N-5-{[3-(2-methylphenyl)quinolin-2-yl]methyl}pyrimidin-4,5-diamine] | 500 to 1500
8 | Cc1cccc2cc(CNC(=O)c3nccnc3N)c(N3CCCN(C(=O)CN(C)C)CC3)nc12 [Compound 137, 3-amino-N-({2-[4-(N,N-dimethylglycyl)-1,4-diazepan-1-yl]-8-methylquinolin-3-yl}methyl}pyrazine-2-carboxamide] | 250 to 500
9 | Cc1cccc2cc(CNC(=O)c3nccnc3N)c(NCCCN(C)C)nc12 [Compound 138, 3-amino-N-[(2-{[3-(dimethylamino)propyl]amino}-8-methylquinolin-3-yl)methyl]pyrazine-2-carboxamide] | 500 to 1500
10 | Cc1cccc2cc(CNC(=O)c3nccnc3N)c(N3CCCNCC3)nc12 [Compound 139, 3-amino-N-{[2-(1,4-diazepan-1-yl)-8-methylquinolin-3-yl]methyl}pyrazine-2-carboxamide] | 250 to 500
11 | Cc1cccc2cc(CNC(=O)c3nccnc3N)c(N3CCCN(C)CC3)nc12 [Compound 140, 3-amino-N-{[8-methyl-2-(4-methyl-1,4-diazepan-1-yl)quinolin-3-yl]methyl}pyrazine-2-carboxamide] | 250 to 500
12 | Cc1ccccc1-c1cc2ccccc2nc1CNc1ncnc2[nH]nc(Br)c12 [Compound 141, 3-bromo-N-{[3-(2-methylphenyl)quinolin-2-yl]methyl}-1H-pyrazolo[3,4-d]primidin-4-amine] | 500 to 1500
13 | Cc1ccccc1-c1cc2ccccc2nc1CNC(=O)c1nccnc1N [Compound 142, 3-amino-N-{[3-(2-methylphenyl)quinolin-2-yl]methyl}pyrazine-2-carboxamide] | 500 to 1500
14 | Cc1cccc2cc(CNC(=O)c3nccnc3N)c(N3CCCCC3)nc12 [Compound 147, 3-amino-N-[(8-methyl-2-piperidin-1-ylquinolin-3-yl)methyl]pyrazine-2-carboxamide] | 500 to 1500
15 | Cc1cccc2cc(Cn3cnc4c(N)ncnc43)c(N3CC4CC3CN4C)nc12 (stereo not shown) [Compound 150, 9-{[8-methyl-2-(5-methyl-2,5-diazabicyclo[2.2.1]hept-2-yl)quinolin-3-yl]methyl}-9H-purin-6-amine] | 500 to 1500
16 | Cc1ccccc1-n1c(CNC(=O)c2nccnc2N2CCOCC2)nc2cccc(C)c2c1=O [Compound 151] | 500 to 1500
17 | Cc1cccc2cc(Cn3cnc4c(N)ncnc43)c(NS(C)(=O)=O)nc12 [Compound 153, N-{3-[(6-amino-9H-purin-9-yl)methyl]-8-methylquinolin-2-yl}methanesulfonamide] | 500 to 1500
18 | Cc1cccc2cc(Cn3cnc4c(N)ncnc43)c(NS(=O)(=O)c3ccccc3)nc12 [Compound 156, N-{3-[(6-amino-9H-purin-9-yl)methyl]-8-methylquinolin-2-yl}benzenesulfonamide] | 500 to 1500
19 | Cc1ccccc1-n1c(CCN)nc2cccc(C)c2c1=O [Compound 157, 2-(2-aminoethyl)-5-methyl-3-(2-methylphenyl)quinazolin-4(3H)-one] | 500 to 1500

Results, then the compound that gave them:

Row | IC50 [nM] | Compound
20 | 50 to 250 | Cc1cccc2cc(CNC(=O)c3nccnc3N)c(N(C)CCN(C)C(=O)CN)nc12 [Compound 115, 3-amino-N-({2-[{2-[glycyl(methyl)amino]ethyl}(methyl)amino]-8-methylquinolin-3-yl}methyl)pyrazine-2-carboxamide]
21 | 50 to 250 | CNCC(=O)N(C)CCN(C)c1nc2c(C)cccc2cc1CNC(=O)c1nccnc1N [Compound 116, 3-amino-N-{[8-methyl-2-(methyl{2-[methyl(N-methylglycyl)amino]ethyl}amino)quinolin-3-yl]methyl}pyrazine-2-carboxamide]
22 | < 50 | Cc1ccccc1-c1cc2ccccc2nc1C(C)n1nc(I)c2c(N)ncnc21 (stereo not shown) [Compound 117, 3-iodo-1-{1-[3-(2-methylphenyl)quinolin-2-yl]ethyl}-1H-pyrazolo[3,4-d]pyrimidin-4-amine]
23 | 250 to 500 | Cc1ccccc1-c1cc2c(C)cccc2nc1CNC(=O)c1nccnc1N [Compound 118, 3-amino-N-{[5-methyl-3-(2-methylphenyl)quinolin-2-yl]methyl}pyrazine-2-carboxamide]
24 | < 50 | Cc1ccccc1-c1cc2c(C)cccc2nc1Cn1nc(I)c2c(N)ncnc21 [Compound 119, 3-iodo-1-{[5-methyl-3-(2-methylphenyl)quinolin-2-yl]methyl}-1H-pyrazolo[3,4-d]pyrimidin-4-amine]
25 | 50 to 250 | Cc1cccc2cc(CNC(=O)c3nccnc3N)c(N(C)CCO)nc12 [Compound 121, 3-amino-N-({2-[(2-hydroxyethyl)(methyl)amino]-8-methylquinolin-3-yl}methyl)pyrazine-2-carboxamide]
26 | 250 to 500 | CC(=O)N1CCN(c2nc3c(C)cccc3cc2CNC(=O)c2nccnc2N)CC1 [Compound 124, N-{[2-(4-acetylpiperazin-1-yl)-8-methylquinolin-3-yl]methyl}-3-aminopyrazine-2-carboxamide]
27 | < 50 | Cc1cccc2cc(CNC(=O)c3nccnc3N)c(N(C)CCN(C)C)nc12 [Compound 128, 3-amino-N-[(2-{[2-(dimethylamino)ethyl](methyl)amino}-8-methylquinolin-3-yl)methyl]pyrazine-2-carboxamide]
28 | 250 to 500 | CNCCN(C)c1nc2c(C)cccc2cc1CNC(=O)c1nccnc1N [Compound 130, 3-amino-N-[(8-methyl-2-{methyl[2-(methylamino)ethyl]amino}quinolin-3-yl)methyl]pyrazine-2-carboxamide]
29 | 50 to 250 | CNCCCN(C)c1nc2c(C)cccc2cc1CNC(=O)c1nccnc1N [Compound 133, 3-amino-N-[(8-methyl-2-{methyl[3-(methylamino)propyl]amino}quinolin-3-yl)methyl]pyrazine-2-carboxamide]
30 | < 50 | Cc1ccccc1-c1nc2c(C)cccc2cc1Cn1nc(I)c2c(N)ncnc21 [Compound 134, 3-iodo-1-{[8-methyl-2-(2-methylphenyl)quinolin-3-yl]methyl}-1H-pyrazolo[3,4-d]pyrimidin-4-amine]
31 | < 50 | Cc1cccc2cc(CNC(=O)c3nccnc3N)c(N(C)CCCN(C)C(=O)CN(C)C)nc12 [Compound 136, 3-amino-N-({2-[{3-[(N,N-dimethylglycyl)(methyl)amino]propyl}(methyl)amino]-8-methylquinolin-3-yl}methyl)pyrazine-2-carboxamide]
32 | < 50 | CC(=O)N1CCN(c2nc3c(C)cccc3cc2CNc2ncnc3[nH]cnc23)CC1 [Compound 143, N-{[2-(4-acetylpiperazin-1-yl)-8-methylquinolin-3-yl]methyl}-9H-purin-6-amine]
33 | < 50 | CCN1CCN(c2nc3c(C)cccc3cc2CNc2ncnc3[nH]cnc23)CC1 [Compound 144, N-{[2-(4-ethylpiperazin-1-yl)-8-methylquinolin-3-yl]methyl}-9H-purin-6-amine]
34 | < 50 | Cc1ccccc1-c1cc2ccccc2nc1Cn1nc(I)c2c(N)ncnc21 [Compound 145, 3-iodo-1-{[3-(2-methylphenyl)quinolin-2-yl]methyl}-1H-pyrazolo[3,4-d]pyrimidin-4-amine]
35 | < 50 | Cc1cccc2cc(CNc3ncnc4[nH]cnc34)c(N3CCCN(C)CC3)nc12 [Compound 146, N-{[8-methyl-2-(4-methyl-1,4-diazepan-1-yl)quinolin-3-yl]methyl}-9H-purin-6-amine]
36 | 50 to 250 | Cc1cccc2cc(CNC(=O)c3nccnc3N)c(-c3ccccc3Cl)nc12 [Compound 148, 3-amino-N-{[2-(2-chlorophenyl)-8-methylquinolin-3-yl]methyl}pyrazine-2-carboxamide]
37 | < 50 | CNCCN(C)c1nc2c(C)cccc2cc1Cn1cnc2c(N)ncnc21 [Compound 149, N-{3-[(6-amino-9H-purin-9-yl)methyl]-8-methylquinolin-2-yl}-N,N′-dimethylethane-1,2-diamine]
38 | < 50 | Cc1cccc2cc(C(C)Nc3ncnc4[nH]cnc34)c(-c3ccccc3Cl)nc12 (stereo not shown) [Compound 152, N-{1-[2-(2-chlorophenyl)-8-methylquinolin-3-yl]ethyl}-9H-purin-6-amine]
39 | < 50 | Cc1cccc2cc(CNc3ncnc4[nH]cnc34)c(-c3ccccc3Cl)nc12 [Compound 154, N-{[2-(2-chlorophenyl)-8-methylquinolin-3-yl]methyl}-9H-purin-6-amine]
40 | 50 to 250 | Cc1ccccc1-c1cc2ccccc2nc1CNc1ncnc2[nH]cnc12 [Compound 155, N-{[3-(2-methylphenyl)quinolin-2-yl]methyl}-9H-purin-6-amine]
